Patent US6500849B1, “1-alkyl-, 1-alkenyl-, and 1-alkynylaryl-2-amino 1,3-propanediols and related compounds” (Aventis Pharmaceuticals Inc., priority 1990, dated 2002)

Columns and labels:
Strept. pyogenes = experiment: Aerobic antibacterial assay (agar dilution, Mueller-Hinton agar); settings: aerobic, 24 hours at 37° C.
Clost. perfringens = experiment: microbe, parasite or virus in culture; type: cell-based; settings: Clost. perfringens 194; anaerobic; 48 hours at 37° C.
[1] = test system: female Swiss Webster mice; experiment: TPA-induced ear edema assay; type: in vivo; settings: 10 μg/ear topical, after about 5 hours
Description: In the TPA-induced ear edema assay, TPA (12-O-tetradecanoylphorbol-13-acetate) was dissolved in 30/70 propylene glycol/ethanol and was applied to the right ear of groups of 6 female Swiss Webster mice, which were housed together in a cage under standard conditions for 1 week prior to use with food and water ad lib, at a volume of 20 μl so that a total of 10 μg of TPA is delivered to the inner and outer surfaces of the ear. The test compound was dissolved in the vehicle and was applied to the right ear (the inner and outer surface) at a volume of 20 μl so that a total of 10 μg of the compound was delivered to the ear. After about 5 hours, the animals were sacrificed, a 4 mm diameter plug was taken from each ear and weighed. The difference between the right and left ear plug weights for each animal was determined. The antiinflammatory activity of the test compound is expressed as the mean percent change in the ear plug weight of the treated animals compared to the mean percent change in the plug weight of the control animals.

Bact. ovatus = experiment: Anerobic antibacterial assay (agar dilution, Wilkins-Chalgren agar); type: cell-based; settings: Bact. ovatus 103; anaerobic; 48 hours at 37° C.
Bact. thetaiotaom. = experiment: as above; type: cell-based; settings: anaerobic, 48 hours at 37° C.
Staph. aureus = experiment: Aerobic antibacterial assay (agar dilution, Mueller-Hinton agar); settings: aerobic, 24 hours at 37° C.
E. coli = experiment: as above; type: cell-based
S. typhimurium = experiment: as above; settings: S. typhimurium; aerobic; 24 hours at 37° C.
Fusobact. varium = experiment: Anerobic antibacterial assay (agar dilution, Wilkins-Chalgren agar); type: cell-based; settings: anaerobic, 48 hours at 37° C.
E. cloacae = experiment: Aerobic antibacterial assay (agar dilution, Mueller-Hinton agar); settings: aerobic, 24 hours at 37° C.
Strept. faecium = experiment: as above; settings: Strept. faecium D; aerobic; 24 hours at 37° C.
Bact. vulgatus = experiment: Anerobic antibacterial assay (agar dilution, Wilkins-Chalgren agar); type: cell-based; settings: Bact. vulgatus 1446; anaerobic; 48 hours at 37° C.
Propionibact. acnes = experiment: as above; type: cell-based; settings: anaerobic, 48 hours at 37° C.
Bact. fragilis = experiment: as above; type: cell-based; settings: anaerobic, 48 hours at 37° C.
Bact. distasonis = experiment: as above; type: cell-based; settings: Bact. distasonis 1366; anaerobic; 48 hours at 37° C.
Protein kinase C = Protein kinase C assay (32P incorporation into Type III histone); type: biochemical, rat; settings: rat brain protein kinase C; phosphatidylserine/diacylglycerol stimulated; read-out: Protein Kinase Inhibitory Activity IC50
Description: (see U. Kikkawa, et al., Biochemical and Biophysical Research Communications, 135, 636 (1986) and R. M. Bell, et al. “Methods in Enzymology, Hormone Action,” Part J, P.M. Conn, Ed., Academic Press, Inc., New York, N.Y. 1986, page 353). Protein kinase C enzyme extract was prepared from the brain of male Wistar rats weighing 180 to 200 g and purified by the method of U. Kikkawa, et al., ibid. 636. The purified extract was stored at −80° C., and aliquots were used in the protein kinase C assay performed by a modification of the method of R. M. Bell, et al., ibid. al 354. To perform the assay, duplicate aliquots of duplicate samples are employed. Basal or unstimulated protein kinase C, phosphatidylserine/diacylglycerol stimulated protein kinase C, and test samples are run in each assay. […] The assay tubes were allowed to warm to 25° C. and an 8 μl mixture of adenosine 5′-triphosphate (100 μM) and ^32P-adenosine triphosphate (1 to 2×10^5 counts per minute) was added to each tube for a final volume of 80 μl per tube. After 2 min, the reaction (the incorporation of phosphorous into Type III histone) was terminated by spotting the assay mixture on phosphocellulose paper. The spots are cut out of the paper and the radioactivity (counts per min) of each spot was determined in a scintillation counter.

Klebsiella spp. = experiment: Aerobic antibacterial assay (agar dilution, Mueller-Hinton agar); settings: aerobic, 24 hours at 37° C.
Peptostr. anaerobius = experiment: Anerobic antibacterial assay (agar dilution, Wilkins-Chalgren agar); type: cell-based; settings: Peptostr. anaerobius 932; anaerobic; 48 hours at 37° C.
[2] = test system: female Swiss Webster mice; experiment: Arachidonic acid-induced ear edema assay; type: in vivo; settings: 1 mg/ear topical, arachidonic acid 4 mg/ear
Description: In the arachidonic acid-induced ear edema assay, the test compound was dissolved in 30/70 propylene glycol/ethanol and was applied to both ears of groups of 6 female Swiss Webster mice, which were housed together in a cage under standard conditions for 1 week prior to use with food and water ad lib, at a volume of 20 μl so that a total of 1.0 mg of test compound was delivered to each ear over the inner and outer surfaces. The same volume (20 μl) of vehicle was applied to each ear of a control group of mice. After 30 minutes, arachidonic acid was applied to the right ear of each mouse of each group in the amount of 4 mg/ear. Vehicle was applied to the left ear of each mouse of each group at a volume of 20 μl/ear. After an additional hour, the mice were sacrificed and a 4 mm plug was taken from each ear and weighed. The difference between the right and left ear plugs was determined for each animal. The antiinflammatory activity of the test compound is expressed as the mean percent change in the ear plug weight of the treated animals relative to the mean percent change in weights of control animals' ear. Antiinflammatory activity of representative compounds of the present invention as determined in this assay are presented below in Table 3.

Clost. tetani = experiment: Anerobic antibacterial assay (agar dilution, Wilkins-Chalgren agar); type: cell-based; settings: Clost. tetani 19406; anaerobic; 48 hours at 37° C.

SMILES: CCCCCCCCCCCCC/C=C/[C@@H](O)[C@@H](N)CO [D-erythro-sphingosine, reference compound]
- Antibacterial activity (MIC, mg/l) (Strept. pyogenes; Strept. pyogenes 77 A): 25.0 mg/L
- Antibacterial activity (MIC, mg/l) (Strept. pyogenes; Strept. pyogenes 308 A): 12.5 mg/L
- Antibacterial activity (MIC, mg/l) (Clost. perfringens): 6.25 mg/L
- Antiinflammatory Activity Percent Decrease in Ear Plug Weight at 10 μg/ear [1]: 46%
- Antibacterial activity (MIC, mg/l) (Bact. ovatus): 12.5 mg/L
- Antibacterial activity (MIC, mg/l) (Bact. thetaiotaom.; Bact. thetaiotaom. 123): 25.0 mg/L
- Antibacterial activity (MIC, mg/l) (Bact. thetaiotaom.; Bact. thetaiotaom. 1428): 25.0 mg/L
- Antibacterial activity (MIC, mg/l) (Bact. thetaiotaom.; Bact. thetaiotaom. 1445): 25.0 mg/L
- Antibacterial activity (MIC, mg/l) (Staph. aureus; Staph. aureus 285): 25.0 mg/L
- Antibacterial activity (MIC, mg/l) (Staph. aureus; Staph. aureus 503): 25.0 mg/L
- Antibacterial activity (MIC, mg/l) (Staph. aureus; Staph. aureus SG511): 25.0 mg/L
- Antibacterial activity (MIC, mg/l) (E. coli; E. coli 1507E, 24 hours at 37° C.): >100.0 mg/L
- Antibacterial activity (MIC, mg/l) (E. coli; E. coli DC0, 24 hours at 37° C.): >100.0 mg/L
- Antibacterial activity (MIC, mg/l) (E. coli; E. coli DC2, 24 hours at 37° C.): 25.0 mg/L
- Antibacterial activity (MIC, mg/l) (E. coli; E. coli O 78, 24 hours at 37° C.): >100.0 mg/L
- Antibacterial activity (MIC, mg/l) (E. coli; E. coli TEM, 24 hours at 37° C.): >100.0 mg/L
- Antibacterial activity (MIC, mg/l) (S. typhimurium): >100.0 mg/L
- Antibacterial activity (MIC, mg/l) (Fusobact. varium; Fusobact. varium 3085): 25.0 mg/L
- Antibacterial activity (MIC, mg/l) (Fusobact. varium; Fusobact. varium 5262): 25.0 mg/L
- Antibacterial activity (MIC, mg/l) (E. cloacae; E. cloacae 1321E): 50.0 mg/L
- Antibacterial activity (MIC, mg/l) (E. cloacae; E. cloacae P99): >100.0 mg/L
- Antibacterial activity (MIC, mg/l) (Strept. faecium): 25.0 mg/L
- Antibacterial activity (MIC, mg/l) (Bact. vulgatus): 25.0 mg/L
- Antibacterial activity (MIC, mg/l) (Propionibact. acnes; Propionibact. acnes 6919): 12.5 mg/L
- Antibacterial activity (MIC, mg/l) (Propionibact. acnes; Propionibact. acnes 6922): 12.5 mg/L
- Antibacterial activity (MIC, mg/l) (Bact. fragilis; Bact. fragilis 312): 25.0 mg/L
- Antibacterial activity (MIC, mg/l) (Bact. fragilis; Bact. fragilis 960): 12.5 mg/L
- Antibacterial activity (MIC, mg/l) (Bact. fragilis; Bact. fragilis 1313): 25.0 mg/L
- Antibacterial activity (MIC, mg/l) (Bact. fragilis; Bact. fragilis 17390): 25.0 mg/L
- Antibacterial activity (MIC, mg/l) (Bact. fragilis; Bact. fragilis 18125): 25.0 mg/L
- Antibacterial activity (MIC, mg/l) (Bact. fragilis; Bact. fragilis 19016): 25.0 mg/L
- Antibacterial activity (MIC, mg/l) (Bact. distasonis): 12.5 mg/L
- IC50 (Protein kinase C): 6.7 µM
- Antibacterial activity (MIC, mg/l) (Klebsiella spp.; Klebsiella spp. 1082E): 25.0 mg/L
- Antibacterial activity (MIC, mg/l) (Klebsiella spp.; Klebsiella spp. 1522E): >100.0 mg/L
- Antibacterial activity (MIC, mg/l) (Peptostr. anaerobius): 12.5 mg/L
- Antiinflammatory Activity Percent Decrease in Ear Plug Weight at 1 mg/ear [2]: +9%
- Antibacterial activity (MIC, mg/l) (Clost. tetani): 50.0 mg/L
